Key:
[1] = biological target: IL-2-Inducible T-Cell Kinase (ITK) (Homo sapiens (Human), UniProt Q08881); experiment: ITK enzyme assay (IL-2-inducible T-cell kinase activity); type: biochemical; settings: geometric mean of count n
Description: ITK activity was determined by measuring the effect of a test compound in an ITK enzyme assay.
1.0 M HEPES Buffer pH 7.5 solution was prepared as follows: 238.3 g HEPES free acid (Sigma) and 800 mL of water were combined, and the mixture was stirred until complete dissolution. The pH was adjusted to 7.5 via titration with 5N NaOH and the volume adjusted to 1000 mL. The solution was filtered and sterilized.
ITK assay buffer was prepared as follows: 50 mL of HPLC-grade water was treated with 2 mL of 1.0 M HEPES Buffer, 500 μL of 2% Gelatin (Sigma), 1.0 mL of aqueous MgCl2 solution (1.0 M), and 1.0 mL of aqueous glutathione solution (0.5 M), and the solution was mixed. The solution was brought to 99 mL in a graduated cylinder by addition of water and sterilized through a 0.2 μm filter. 0.1 mL of Brij-35™ Surfact-Amps™ Detergent Solution (10% w/v aqueous solution, ThermoFisher) and 1.0 mL of ATP (Teknova,100 mM) were added and the solution was mixed.
Preparation of 1.33× ITK enzyme solution was as follows: 49.99 mL of ITK assay buffer was treated with 4.1 μL of ITK enzyme (ITK FL (N-Flag and C-His tagged, […]) Lake Pharma, 0.25 mg/ml in a buffer containing 25 mM Tris pH 7.8, 150 mM NaCl, 10% glycerol and 2 mM TCEP) and the mixture was gently agitated. The resulting solution was stored on ice. 30 Minutes prior to use, the enzyme solution was removed from ice and equilibrated to RT by incubation in a RT water bath.
Preparation of 4× ITK substrate solution was as follows: 50 mL of ITK assay buffer was treated with 100 μL of BTK peptide (China Peptide Company, 2 mM stock solution in DMSO). The tube was capped, mixed by gently inverting the tube, and then stored on ice. 30 Minutes prior to use, the substrate solution was removed from ice and equilibrated to RT by incubation in a RT water bath.
At the time of assay, 7.5 μL of the 1.33× ITK enzyme solution was added to plate wells containing 0.1 μL of varying concentrations of test compound in DMSO. The plate was incubated 30 min at RT. The plate wells were each treated with 2.5 uL of the 4× ITK substrate solution and the plate was sealed (TopSeal™, Perkin Elmer). The plate was spun at 1000 rpm for 30 sec and then incubated for 60 min at RT. The seal was removed, and each well was treated with 10 μL of Stop/Detect Buffer (20 mM HEPES pH 7.5, 0.01% gelatin, 1 nM LANCE PT66 (Perkin Elmer), 16.5 μg/ml Surelight APC (Perkin Elmer), 10 mM EDTA, 250 mM NaCl). The plate was again covered and was spun at 1000 rpm for […]. The plate was allowed to incubate overnight at RT and in a closed carrier to reduce dehydration. The seal was removed, and the fluorescence was read with a plate reader with an excitation wavelength of […]. The concentrations and resulting effect values for the tested compound were plotted and the concentration of compound required for 50% effect (IC50) was determined with the four-parameter logistic dose response equation.

[2] = test system: activated CD4+ human T-cells (IL-2); experiment: IL-2 inhibition in supernatants from activated CD4+ human T-cells (cisbio HTRF); type: cell-based; settings: T-cell; CD3/CD28-activated CD4+ human T cells, ImmunoCult stimulation 20 to 24 hrs; geometric mean of count n
Description: IL-2 inhibition activity in supernatants from activated CD4+ human T-cells was determined by measuring the effect of a test compound on the activity using the cisbio HTRF™ technology.
Human CD4+ T cells were activated with CD3/CD28 for 3 days and expanded for an additional 4-6 days (7 to 9 days total). On day 0, frozen CD4+ T cells were thawed, treated with CD3/CD28 Dynabeads, and incubated at 37° C./5% CO2. On day 3, the beads were removed, and the cells were diluted to 5×10^5 cells/cm^2, placed in G-Rex10 flask, and incubated at 37° C./5% CO2. On day 7 to day 9 the cells were removed from the G-Rex flasks, counted and diluted back to 1×10^6 cells/ml in standard tissue culture flask.
The expanded CD4+ T-cells were centrifuged at 300×g for 10 minutes and resuspended to 0.5 million cells per ml (30,000 cells/well). 60 μl of CD4+ T cells were added per well to a 384 well plate containing 0.1 μL of varying concentrations of test compound in DMSO. The plates were incubated for 15 min at 37° C./5% CO2. 20 μl of diluted ImmunoCult™ (STEMCELL Technologies, 1:12.5 in T cell assay media) were added to all wells of the plate (1:50 final assay concentration). The plates were incubated for an additional 20 to 24 hrs at 37° C./5% CO2. The plates were centrifuged at 300×g for 10 minutes. 16 μL of supernatant was removed and combined with 4 μl of IL-2 HTRF Abs. (cisbio kit). Plates were incubated for 3 hours at RT and read with an EnVision plate reader at 665 nm and 615 nm wavelengths. The concentrations and resulting effect values for the tested compound were plotted and the concentration of compound required for 50% effect (IC50) was determined with the four-parameter logistic dose response equation.

IL-2-Inducible T-Cell Kinase (ITK), sequence (Q08881 whole entry): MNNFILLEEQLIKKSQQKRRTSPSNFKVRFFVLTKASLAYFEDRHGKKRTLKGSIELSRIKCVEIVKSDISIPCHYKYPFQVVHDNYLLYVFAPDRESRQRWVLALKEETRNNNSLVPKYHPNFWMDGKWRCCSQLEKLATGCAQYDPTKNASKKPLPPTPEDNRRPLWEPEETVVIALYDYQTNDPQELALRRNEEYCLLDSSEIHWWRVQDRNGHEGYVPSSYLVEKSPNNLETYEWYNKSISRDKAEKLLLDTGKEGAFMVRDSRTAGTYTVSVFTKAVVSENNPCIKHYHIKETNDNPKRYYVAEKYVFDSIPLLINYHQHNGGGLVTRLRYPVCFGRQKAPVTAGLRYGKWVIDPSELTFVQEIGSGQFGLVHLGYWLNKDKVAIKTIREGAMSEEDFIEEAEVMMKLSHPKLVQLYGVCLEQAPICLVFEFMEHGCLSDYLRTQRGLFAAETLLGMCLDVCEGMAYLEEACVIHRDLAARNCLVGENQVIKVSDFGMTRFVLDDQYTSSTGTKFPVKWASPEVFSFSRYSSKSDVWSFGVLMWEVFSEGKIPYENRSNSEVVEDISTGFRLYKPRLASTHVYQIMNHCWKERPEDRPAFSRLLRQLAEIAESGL

Structure (SMILES)	IC50 [1] [nM]	IC50 [2] [nM]
C[C@H](C(=O)N(C)c1cnc2nc(-c3n[nH]c4c3C[C@@H]3C[C@]3(C)C4)[nH]c2c1)n1cccn1 [Example 8, (R)-N-Methyl-N-(2-((4aS,5aR)-5a-methyl-1,4,4a,5,5a,6-hexahydrocyclopropa[f]indazol-3-yl)-1H-imidazo[4,5-b]pyridin-6-yl)-2-(1H-pyrazol-1-yl)propanamide]	117	279
CC(C(=O)N(C)c1cnc2[nH]c(-c3n[nH]c4c3C[C@@H]3C[C@]3(C)C4)nc2c1)C1CCOCC1 (stereo partly drawn) [Example 9, N-Methyl-N-(2-((4aS,5aR)-5a-methyl-1,4,4a,5,5a,6-hexahydrocyclopropa[f]indazol-3-yl)-3H-imidazo[4,5-b]pyridin-6-yl)-2-(tetrahydro-2H-pyran-4-yl)propanamide]	24	147
CN(C(=O)C(F)C1CCOCC1)c1cnc2nc(-c3n[nH]c4c3C[C@@H]3C[C@]3(C)C4)[nH]c2c1 (stereo partly drawn) [Example 11, 2-Fluoro-N-methyl-N-(2-((4aS,5aR)-5a-methyl-1,4,4a,5,5a,6-hexahydrocyclopropa[f]indazol-3-yl)-1H-imidazo[4,5-b]pyridin-6-yl)-2-(tetrahydro-2H-pyran-4-yl)acetamide]	72	534
CN(C(=O)[C@H](F)C1CCOCC1)c1cnc2nc(-c3n[nH]c4c3C[C@@H]3C[C@]3(C)C4)[nH]c2c1 [Example 12, (R)-2-Fluoro-N-methyl-N-(2-((4aS,5aR)-5a-methyl-1,4,4a,5,5a,6-hexahydrocyclopropa[f]indazol-3-yl)-1H-imidazo[4,5-b]pyridin-6-yl)-2-(tetrahydro-2H-pyran-4-yl)acetamide]	76	447
CN(C(=O)[C@@H](F)C1CCOCC1)c1cnc2nc(-c3n[nH]c4c3C[C@@H]3C[C@]3(C)C4)[nH]c2c1 [Example 13, (S)-2-Fluoro-N-methyl-N-(2-((4aS,5aR)-5a-methyl-1,4,4a,5,5a,6-hexahydrocyclopropa[f]indazol-3-yl)-1H-imidazo[4,5-b]pyridin-6-yl)-2-(tetrahydro-2H-pyran-4-yl)acetamide]	102	559
C[C@@H](C(=O)N(CCO)c1cnc2[nH]c(-c3n[nH]c4c3C[C@@H]3C[C@]3(C)C4)nc2c1)N1CCOCC1 [Example 15, (S)-N-(2-Hydroxyethyl)-N-(2-((4aS,5aR)-5a-methyl-1,4,4a,5,5a,6-hexahydrocyclopropa[f]indazol-3-yl)-3H-imidazo[4,5-b]pyridin-6-yl)-2-morpholinopropanamide]	83	1230
CC(=O)N(C)c1cnc2[nH]c(-c3n[nH]c4c3CCC(C)(C)C4)nc2c1 [Example 20, N-(2-(6,6-Dimethyl-4,5,6,7-tetrahydro-1H-indazol-3-yl)-3H-imidazo[4,5-b]pyridin-6-yl)-N-methylacetamide]	231	1200
CCN(C(=O)[C@H](C)N1CCOCC1)c1cnc2nc(-c3n[nH]c4c3C[C@@H]3C[C@]3(C)C4)[nH]c2c1 [Example 21, (S)-N-Ethyl-N-(2-((4aS,5aR)-5a-methyl-1,4,4a,5,5a,6-hexahydrocyclopropa[f]indazol-3-yl)-1H-imidazo[4,5-b]pyridin-6-yl)-2-morpholinopropanamide]	38	193
CC(=O)N(C)c1cnc2[nH]c(-c3n[nH]c4c3C[C@@H]3C[C@]3(C)C4)nc2c1 [Example 25, N-methyl-N-(2-((4aS,5aR)-5a-Methyl-1,4,4a,5,5a,6-hexahydrocyclopropa[f]indazol-3-yl)-1H-imidazo[4,5-b]pyridin-6-yl)acetamide]	130	709
Cc1nc2[nH]c(-c3n[nH]c4c3C[C@@H]3C[C@]3(C)C4)nc2cc1N(C)C(=O)[C@H](C)N1CCOCC1 [Example 34, (S)-N-Methyl-N-(5-methyl-2-((4aS,5aR)-5a-methyl-1,4,4a,5,5a,6-hexahydrocyclopropa[f]indazol-3-yl)-3H-imidazo[4,5-b]pyridin-6-yl)-2-morpholinopropanamide]	61	481
COc1nc2[nH]c(-c3n[nH]c4c3C[C@@H]3C[C@]3(C)C4)nc2cc1N(C)C(=O)CN1CCOCC1 [Example 35, N-(5-Methoxy-2-((4aS,5aR)-5a-methyl-1,4,4a,5,5a,6-hexahydrocyclopropa[f]indazol-3-yl)-3H-imidazo[4,5-b]pyridin-6-yl)-N-methyl-2-morpholinoacetamide]	143	462
COCCOc1nc2[nH]c(-c3n[nH]c4c3C[C@@H]3C[C@]3(C)C4)nc2cc1N(C)C(=O)CN1CCOCC1 [Example 38, N-(5-(2-Methoxyethoxy)-2-((4aS,5aR)-5a-methyl-1,4,4a,5,5a,6-hexahydrocyclopropa[f]indazol-3-yl)-3H-imidazo[4,5-b]pyridin-6-yl)-N-methyl-2-morpholinoacetamide]	152	464
COCCOc1nc2[nH]c(-c3n[nH]c4c3C[C@@H]3C[C@]3(C)C4)nc2cc1N(C)C(=O)[C@@H](C)N1CCOCC1 [Example 39, (R)-N-(5-(2-Methoxyethoxy)-2-((4aS,5aR)-5a-methyl-1,4,4a,5,5a,6-hexahydrocyclopropa[f]indazol-3-yl)-3H-imidazo[4,5-b]pyridin-6-yl)-N-methyl-2-morpholinopropanamide]	110	461
C[C@@H](C(=O)N(C)c1cnc2[nH]c(-c3n[nH]c4c3C[C@@H]3C[C@]3(C)C4)nc2c1)N1CCCOCC1 [Example 43, (S)-N-Methyl-N-(2-((4aS,5aR)-5a-methyl-1,4,4a,5,5a,6-hexahydrocyclopropa[f]indazol-3-yl)-3H-imidazo[4,5-b]pyridin-6-yl)-2-(1,4-oxazepan-4-yl)propenamide]	134	351
C[C@H](C(=O)N(C)c1cnc2[nH]c(-c3n[nH]c4c3C[C@@H]3C[C@]3(C)C4)nc2c1)N1CCCOCC1 [Example 44, (R)-N-Methyl-N-(2-((4aS,5aR)-5a-methyl-1,4,4a,5,5a,6-hexahydrocyclopropa[f]indazol-3-yl)-3H-imidazo[4,5-b]pyridin-6-yl)-2-(1,4-oxazepan-4-yl)propenamide]	101	226
CN(C(=O)CC1CCCC1)c1cnc2nc(-c3n[nH]c4c3C[C@@H]3C[C@]3(C)C4)[nH]c2c1 [Example 45, 2-Cyclopentyl-N-methyl-N-(2-((4aS,5aR)-5a-methyl-1,4,4a,5,5a,6-hexahydrocyclopropa[f]indazol-3-yl)-1H-imidazo[4,5-b]pyridin-6-yl)acetamide]	25	117
